According to ChEMBL document CHEMBL4680247, “Design, synthesis, and biological evaluation of 3-amino-2-oxazolidinone derivatives as potent quorum-sensing inhibitors of Pseudomonas aeruginosa PAO1” (Eur J Med Chem, 2020):
≈ marks a conversion by molar mass, not a printed value. Calls of active or inactive are those of the source. The calls are words filed in the database; no cut-off is given here.

Columns and labels:
[1] = tested on: Chromobacterium violaceum; assay: Inhibition of quorum sensing in Chromobacterium violaceum CV026 mini-Tn5 mutant at 2.5 to […] after 12 hrs in presence of C6-HSL
[2] = tested on: Chromobacterium violaceum; assay: Antibacterial activity against Chromobacterium violaceum CV026 mini-Tn5 mutant; type: functional, organism-based
[3] = Inhibition of quorum sensing in Chromobacterium violaceum CV026 mini-Tn5 mutant after 12 hrs in presence of C6-HSL
Pseudomonas aeruginosa [4] = assay: Antibacterial activity against Pseudomonas aeruginosa PAO1 planktonic cells assessed as reduction in bacterial growth after 18 hrs by resazurin dye based assay; settings: PAO1, 18 h
Pseudomonas aeruginosa [5] = assay: Antibacterial activity against Pseudomonas aeruginosa PAO1 biofilm cells assessed as reduction in bacterial growth after 2 days by resazurin dye based assay; settings: PAO1, 48 h
Pseudomonas aeruginosa [6] = assay: Antibacterial activity against Pseudomonas aeruginosa PAO1 biofilm cells assessed as reduction in microbial growth at 10 uM after 6 days in presence of MPEM; type: functional, organism-based; settings: time 6.0 day
Pseudomonas aeruginosa [7] = assay: Antibacterial activity against Pseudomonas aeruginosa ATCC 27853 planktonic cells assessed as reduction in bacterial growth after 18 hrs by resazurin dye based assay; type: functional
[8] = tested on: Pseudomonas aeruginosa PAO1; assay: Inhibition of quorum sensing Rhl/PQS in Pseudomonas aeruginosa PAO1 assessed as reduction in pyocyanin level at 20 to 162.5 uM after 16 hrs; settings: dose 20-162.5 µM
Pseudomonas aeruginosa [9] = assay: Antibacterial activity against Pseudomonas aeruginosa PAO1 infected in Caenorhabditis elegans N2 strain assessed as increase in Caenorhabditis elegans survival rate at 162.5 uM after 120 hrs relative to control; type: functional
[10] = tested on: Pseudomonas aeruginosa PAO1; assay: Inhibition of quorum sensing Rhl/PQS in Pseudomonas aeruginosa PAO1 assessed as reduction in pyocyanin level at 162.5 uM after 16 hrs relative to control
Pseudomonas aeruginosa [11] = assay: Inhibition of biofilm formation in Pseudomonas aeruginosa PAO1after 20 hrs by crystal violet assay; type: functional, organism-based; settings: PAO1, dose 10-325 µM
Pseudomonas aeruginosa [12] = assay: Inhibition of biofilm formation in Pseudomonas aeruginosa PAO1 at 162.5 uM after 20 hrs by crystal violet assay relative to control; type: functional
[13] = tested on: Pseudomonas aeruginosa PAO1; assay: Inhibition of quorum sensing RhlAB in Pseudomonas aeruginosa PAO1 assessed as reduction in rhamnolipid level at 162.5 uM after 48 hrs by sulfuric acid-orcinol method relative to control
Pseudomonas aeruginosa [14] = assay: Synergistic antibacterial activity against Pseudomonas aeruginosa PAO1 biofilm cells assessed as fold change in MPEM MIC by checker board assay; type: functional
Pseudomonas aeruginosa [15] = assay: Antibacterial activity against Pseudomonas aeruginosa PAO1 biofilm cells assessed as reduction in microbial growth at 10 uM after 6 days; type: functional, organism-based; settings: time 6.0 day
Pseudomonas aeruginosa [16] = assay: Antibacterial activity against Pseudomonas aeruginosa PAO1 infected in Caenorhabditis elegans N2 strain assessed as increase in Caenorhabditis elegans survival rate at 162.5 uM up to 240 hrs relative to control; type: functional; settings: time hrs <=240
[17] = tested on: Pseudomonas aeruginosa PAO1; assay: Inhibition of quorum sensing lasB in Pseudomonas aeruginosa PAO1 assessed as reduction in elastase level at 20 to 162.5 uM after 16 hrs by elastin Congo red method; settings: dose 20-162.5 µM
Pseudomonas aeruginosa [18] = assay: Synergistic antibacterial activity against Pseudomonas aeruginosa PAO1 biofilm cells assessed as FICI in presence of MPEM by checker board assay; type: functional
Pseudomonas aeruginosa [19] = assay: Antibacterial activity against Pseudomonas aeruginosa ATCC 27853 biofilm cells assessed as reduction in bacterial growth after 2 days by resazurin dye based assay; type: functional; settings: ATCC 27853, 48 h, time 2 day
[20] = tested on: Pseudomonas aeruginosa PAO1; assay: Inhibition of quorum sensing las in Pseudomonas aeruginosa PAO1 assessed as reduction in protease level at 20 to 162.5 uM after 16 hrs; settings: dose 20-162.5 µM
Pseudomonas aeruginosa [21] = assay: Inhibition of biofilm formation in Pseudomonas aeruginosa PAO1 at 10 to 325 uM after 20 hrs by crystal violet assay relative to control; type: functional; settings: dose 10-325 µM
Pseudomonas aeruginosa [22] = assay: Antibacterial activity against Pseudomonas aeruginosa PAO1 biofilm cells assessed as reduction in microbial growth under sonication at 0.25 ug/ml after 6 days; type: functional, organism-based; settings: dose 0.25 µg/ml, time 6.0 day
[23] = tested on: Pseudomonas aeruginosa PAO1; assay: Inhibition of quorum sensing lasB in Pseudomonas aeruginosa PAO1 assessed as reduction in elastase level at 162.5 uM after 16 hrs by elastin Congo red method relative to control
Pseudomonas aeruginosa [24] = assay: Antibacterial activity against Pseudomonas aeruginosa PAO1 infected in Caenorhabditis elegans N2 strain assessed as reduction in bacterial growth at 162.5 uM after 120 hrs; type: functional, organism-based
[25] = tested on: Pseudomonas aeruginosa PAO1; assay: Inhibition of quorum sensing las in Pseudomonas aeruginosa PAO1 assessed as reduction in protease level at 162.5 uM after 16 hrs
[26] = tested on: Pseudomonas aeruginosa PAO1; assay: Inhibition of quorum sensing system in Pseudomonas aeruginosa PAO1 assessed as reduction in swarming motility after 24 hrs; settings: dose 20-162.5 µM
[27] = tested on: Pseudomonas aeruginosa PAO1; assay: Inhibition of quorum sensing RhlAB in Pseudomonas aeruginosa PAO1 assessed as reduction in rhamnolipid level at 20 to 162.5 uM after 48 hrs by sulfuric acid-orcinol method; settings: dose 20-162.5 µM
Pseudomonas aeruginosa [28] = assay: Antibacterial activity against Pseudomonas aeruginosa PAO1 infected in Caenorhabditis elegans N2 strain assessed as increase in Caenorhabditis elegans survival rate at 0.25 ug/ml up to 240 hrs relative to control; type: functional; settings: dose 0.25 µg/ml; time hrs <=240
Pseudomonas aeruginosa [29] = assay: Ratio of MIC for antibacterial activity against Pseudomonas aeruginosa PAO1 biofilm cells to antibacterial activity against Pseudomonas aeruginosa PAO1 planktonic cells; type: functional
Pseudomonas aeruginosa [30] = assay: Antibacterial activity against Pseudomonas aeruginosa PAO1 infected in Caenorhabditis elegans N2 strain assessed as reduction in bacterial growth at 0.25 ug/ml after 120 hrs; type: functional, organism-based; settings: dose 0.25 µg/ml
Pseudomonas aeruginosa [31] = assay: Antibacterial activity against Pseudomonas aeruginosa PAO1 infected in Caenorhabditis elegans N2 strain assessed as increase in Caenorhabditis elegans survival rate at 0.25 ug/ml after 120 hrs relative to control; type: functional; settings: dose 0.25 µg/ml

Question: What does the source list for `O=C(CCCOc1cccc(F)c1)NN1CCOC1=O`?
Answer: inhibition [1]: Active; Activity [2]: inactive; IC50 [3]: 15.5 µM

Question: Which Activity [2] does the source give for `O=C(CCCCCCOc1ccc(Cl)cc1)NN1CCOC1=O` here?
Answer: Its Activity is “inactive”.

Question: Which inhibition [1] does the source give for `O=C(CCCOc1cccc(Cl)c1)NN1CCOC1=O` here?
Answer: Its inhibition is “Active”.

Question: And the Activity [2]?
Answer: The Activity was “inactive”.

Question: What about the IC50 [3] of the same molecule?
Answer: The IC50 was 38.1 µM.

Question: With `CC(C)(O/N=C(\C(=O)N[C@@H]1C(=O)N2C(C(=O)[O-])=C(C[n+]3ccccc3)CS[C@H]12)c1csc(N)n1)C(=O)O` [CEFTAZIDIME] as the molecule, how does the MIC (Pseudomonas aeruginosa [4]) read?
Answer: Its MIC is 1 µg/mL (≈ 1.83 µM).

Question: And the MIC (Pseudomonas aeruginosa [5])?
Answer: Its MIC is 2 µg/mL (≈ 3.66 µM).

Question: Which results are given for `O=C(CCCOc1ccc(F)cc1F)NN1CCOC1=O`?
Answer: inhibition [1]: Active; Activity [2]: inactive; IC50 [3]: 19.6 µM

Question: For `NC[C@H]1O[C@H](O[C@H]2[C@H](O)[C@@H](O[C@H]3O[C@H](CO)[C@@H](O)[C@H](N)[C@H]3O)[C@H](N)C[C@@H]2N)[C@H](N)C[C@@H]1O` [TOBRAMYCIN], which MIC (Pseudomonas aeruginosa [4]) is on record?
Answer: Its MIC is 2 µg/mL (≈ 4.28 µM).

Question: And the MIC (Pseudomonas aeruginosa [5])?
Answer: The MIC was 8 µg/mL (≈ 17.1 µM).

Question: Which inhibition [1] does the source give for `O=C(CCCOc1cc(F)cc(F)c1)NN1CCOC1=O` here?
Answer: The inhibition was “Active”.

Question: What about the Activity [2] of the same molecule?
Answer: Its Activity is “inactive”.

Question: What about the IC50 [3] of the same molecule?
Answer: Its IC50 is 61.6 µM.

Question: What does the source list for `O=C(CCCOc1ccc(Br)cc1)NN1CCOC1=O`?
Answer: Activity (Pseudomonas aeruginosa [6]): Active; MIC (Pseudomonas aeruginosa [7]): > 1110 µg/mL; inhibition [1]: Active; MIC (Pseudomonas aeruginosa [4]): > 1110 µg/mL; inhibition [8]: Active; Activity (Pseudomonas aeruginosa [9]): 16%; inhibition [10]: 22.5%; inhibition (Pseudomonas aeruginosa [11]): Dose-dependent effect; inhibition at 162.5 µM (Pseudomonas aeruginosa [12]): 40.4%; inhibition [13]: 57.9%; fold change (FC) (Pseudomonas aeruginosa [14]): 8; Activity (Pseudomonas aeruginosa [15]): inactive; Activity [2]: inactive; Activity (Pseudomonas aeruginosa [16]): 18.33%; inhibition [17]: Active; fractional inhibitory concentration index (FICI) (Pseudomonas aeruginosa [18]): <0.5; MIC (Pseudomonas aeruginosa [19]): > 1110 µg/mL; inhibition [20]: Active; inhibition (INH) (Pseudomonas aeruginosa [21]): 17.67%; MIC (Pseudomonas aeruginosa [5]): > 1110 µg/mL; Activity (Pseudomonas aeruginosa [22]): Active; inhibition [23]: 16.2%; Activity (Pseudomonas aeruginosa [24]): Active; inhibition [25]: 14.9%; inhibition [26]: Dose-dependent effect; inhibition [27]: Active; IC50 [3]: 3.69 µM

Question: For `O=C(CCCCOc1ccc(Cl)cc1)NN1CCOC1=O`, which inhibition [1] is on record?
Answer: The inhibition was “Active”.

Question: What about the Activity [2] of the same molecule?
Answer: Its Activity is “inactive”.

Question: And the IC50 [3]?
Answer: The IC50 was 39.5 µM.

Question: With `O=C(CCCCCCOc1ccc(Br)cc1Br)NN1CCOC1=O` as the molecule, how does the Activity [2] read?
Answer: The Activity was “inactive”.

Question: Which Activity [2] does the source give for `O=C(CCCCCCOc1ccc([N+](=O)[O-])cc1)NN1CCOC1=O` here?
Answer: The Activity was “inactive”.

Question: For `O=C(CCCCCCOc1ccc(Br)cc1)NN1CCOC1=O`, which Activity [2] is on record?
Answer: Its Activity is “inactive”.

Question: For `O=C(CCCCOc1ccc(F)cc1)NN1CCOC1=O`, which inhibition [1] is on record?
Answer: The inhibition was “Active”.

Question: What about the Activity [2] of the same molecule?
Answer: The Activity was “inactive”.

Question: What about the IC50 [3] of the same molecule?
Answer: Its IC50 is 23.1 µM.

Question: For `O=C(CCCCCCSc1ccc(Cl)cc1)NN1CCOC1=O`, which Activity [2] is on record?
Answer: Its Activity is “inactive”.

Question: With `NCC[C@H](O)C(=O)N[C@@H]1C[C@H](N)[C@@H](O[C@H]2O[C@H](CN)[C@@H](O)[C@H](O)[C@H]2O)[C@H](O)[C@H]1O[C@H]1O[C@H](CO)[C@@H](O)[C@H](N)[C@H]1O` [AMIKACIN] as the molecule, how does the MIC (Pseudomonas aeruginosa [4]) read?
Answer: Its MIC is 4 µg/mL (≈ 6.83 µM).

Question: What about the MIC (Pseudomonas aeruginosa [5]) of the same molecule?
Answer: The MIC was 16 µg/mL (≈ 27.3 µM).

Question: With `O=C(CCCOc1ccccc1F)NN1CCOC1=O` as the molecule, how does the inhibition [1] read?
Answer: Its inhibition is “Active”.

Question: And the Activity [2]?
Answer: The Activity was “inactive”.

Question: And the IC50 [3]?
Answer: The IC50 was 40.9 µM.

Question: For `O=C(CCCCOc1cccc(F)c1)NN1CCOC1=O`, which inhibition [1] is on record?
Answer: The inhibition was “Active”.

Question: And the Activity [2]?
Answer: Its Activity is “inactive”.

Question: What about the IC50 [3] of the same molecule?
Answer: Its IC50 is 63.6 µM.

Question: Which results are given for `C[C@@H](O)[C@H]1C(=O)N2C(C(=O)O)=C(S[C@@H]3CN[C@H](C(=O)N(C)C)C3)[C@H](C)[C@H]12` [MEROPENEM]?
Answer: Activity (Pseudomonas aeruginosa [28]): 15.67%; MIC (Pseudomonas aeruginosa [4]): 0.25 µg/mL (≈ 0.652 µM); Ratio (Pseudomonas aeruginosa [29]): 32; Activity (Pseudomonas aeruginosa [30]): Active; MIC (Pseudomonas aeruginosa [5]): 8 µg/mL (≈ 20.9 µM); Activity (Pseudomonas aeruginosa [31]): 13.33%

Question: With `CCCCCCCCCC(=O)N[C@H]1CCOC1=O` as the molecule, how does the IC50 [3] read?
Answer: The IC50 was 0.13 µM.

Question: Which inhibition [1] does the source give for `O=C(CCCOc1ccc(F)cc1)NN1CCOC1=O` here?
Answer: The inhibition was “Active”.

Question: What about the Activity [2] of the same molecule?
Answer: Its Activity is “inactive”.

Question: And the IC50 [3]?
Answer: Its IC50 is 11 µM.

Question: Which results are given for `O=C(CCCCCOc1ccc(Cl)cc1)NN1CCOC1=O`?
Answer: inhibition [1]: Active; Activity [2]: inactive; IC50 [3]: 32.8 µM

Question: What does the source list for `O=C(CCCSc1ccc(Cl)cc1)NN1CCOC1=O`?
Answer: inhibition [1]: Active; Activity [2]: inactive; IC50 [3]: 6.84 µM

Question: For `O=C(CCCOc1ccc([N+](=O)[O-])cc1)NN1CCOC1=O`, which inhibition [1] is on record?
Answer: The inhibition was “Active”.

Question: And the Activity [2]?
Answer: The Activity was “inactive”.

Question: And the IC50 [3]?
Answer: The IC50 was 21.3 µM.

Question: For `O=C(O)c1cn(C2CC2)c2cc(N3CCNCC3)c(F)cc2c1=O` [CIPROFLOXACIN], which MIC (Pseudomonas aeruginosa [4]) is on record?
Answer: Its MIC is 0.08 µg/mL (≈ 0.241 µM).
